Source: patent publication US20100298141A1, “SUBSTITUTED PYRIDINE N-OXIDE HERBICIDES” (E. I. DU PONT DE NEMOURS AND COMPANY, priority 2007, published 2010)

Key:
Russian thistle = assay: Test C pre-/postemergence test; type: in vivo, Salsola kali; conditions: for Plant response rating, Russian Thistle: scale 0 to 100 (0 no effect, 100 complete control)
Excerpt: Seeds of plant species selected from blackgrass (Alopecurus myosuroides), downy brome (Bromus tectorum), green foxtail (Setaria viridis), Italian ryegrass (Lolium multiflorum), wheat (Triticum aestivum), wild oat (Avena fatua), catchweed bedstraw (Galium aparine), Russian thistle (Salsola kali), […] (Cynodon dactylon), Surinam grass (Brachiaria decumbens), cocklebur (Xanthium strumarium), corn (Zea mays), crabgrass (Digitaria sanguinalis), woolly cupgrass (Eriochloa villosa), giant foxtail (Setaria faberii), Goosegrass (Eleusin indica), johnsongrass (Sorghum halepense), kochia (Kochia scoparia), lambsquarters (Chenopodium album), morningglory (Ipomoea coccinea), eastern black nightshade (Solanum ptycanthum), yellow nutsedge (Cyperus esculentus), pigweed (Amaranthus retroflexus), common ragweed (Ambrosia elation), soybean (Glycine max), common (oilseed) sunflower (Helianthus annuus), and velvetleaf (Abutilon theophrasti) were planted and treated preemergence with test chemicals formulated in a non-phytotoxic solvent mixture which included a surfactant. At the same time, plants selected from these crop and weed species and also winter barley (Hordeum vulgare), canarygrass (Phalaris minor), and chickweed (Stellaria media) were treated with postemergence applications of some of the test chemicals formulated in the same manner. Plants ranged in height from 2 to 18 cm (1- to 4-leaf stage) for postemergence treatments. […] At time of treatment, test pots were flooded to 3 cm above the soil surface, treated by application of test compounds directly to the paddy water, and then maintained at that water depth for the duration of the test. […] A dash (-) response means no test result.

dallisgrass = assay: Test F preemergence test; type: in vivo, Paspalum dilatatum; conditions: scale 0 to 100
Outline: (§1)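 Compounds in a non-phytotoxic solvent formulation with surfactant were applied before emergence after sowing, or, for sugarcane, also postemergence. Evaluation was visual, against controls, after 14 to 21 greenhouse days.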

guineagrass = assay: Test F preemergence test; type: in vivo, Panicum maximum; conditions: scale 0 to 100
Outline: as §1

prickly sida = assay: Test F preemergence test; type: in vivo, Sida spinosa; conditions: scale 0 to 100
Outline: as §1

common mallow = assay: Test F preemergence test; type: in vivo, Malva sylvestris; conditions: scale 0 to 100
Outline: as §1

green foxtail = assay: Test F preemergence test; type: in vivo, Setaria viridis; conditions: scale 0 to 100
Outline: as §1

field bindweed = assay: Test F preemergence test; type: in vivo, Convolvulus arvensis; conditions: scale 0 to 100
Outline: as §1

itchgrass = assay: Test F preemergence test; type: in vivo, Rottboellia cochinchinensis; conditions: scale 0 to 100
Outline: as §1

quackgrass = assay: Test F preemergence test; type: in vivo, Elytrigia repens; conditions: scale 0 to 100
Outline: as §1

mustard = assay: Test F preemergence test; type: in vivo, Brassica nigra; conditions: scale 0 to 100
Outline: as §1

barnyardgrass = assay: Test F preemergence test; type: in vivo, Echinochloa crus-galli
Outline: as §1

southern sandbur = assay: Test F preemergence test; type: in vivo, Cenchrus echinatus; conditions: scale 0 to 100
Outline: as §1

common purslane = assay: Test F preemergence test; type: in vivo, Portulaca oleracea; conditions: scale 0 to 100
Outline: as §1

[1] = 62 g ai/ha, Preemergence, scale 0 to 100
[2] = 125 g ai/ha, preemergence, scale 0 (no effect) to 100 (complete control)
[3] = preemergence, 250 g ai/ha, scale 0 (no effect) to 100 (complete control)

With `C#CCOc1c(CS(=O)(=O)c2cccc[n+]2[O-])c(C(F)(F)F)nn1C` [Compound 103] the “Russian Thistle plant response rating” value (Russian thistle; [1]) was 100, the “Russian Thistle plant response rating” value (Russian thistle; [2]) was 100 and the “Plant response rating, Russian Thistle” value (Russian thistle; Preemergence, 31 g ai/ha) was 100. The “Russian Thistle plant response rating” value (Russian thistle; [3]) was 100.

For `CCc1cc[n+]([O-])c([S+]([O-])Cc2c(C(F)(F)F)nn(C)c2OC(F)F)c1` (stereo not drawn) [Compound 101], the “Russian Thistle plant response rating” value (Russian thistle; [1]) was 100, the “Russian Thistle plant response rating” value (Russian thistle; [2]) was 100 and the “Plant response rating, Russian Thistle” value (Russian thistle; Preemergence, 31 g ai/ha) was 100. The “Russian Thistle plant response rating” value (Russian thistle; [3]) was 100.

In the case of `Cc1cc[n+]([O-])c(S(=O)(=O)Cc2c(C(F)(F)F)nn(C)c2OC(C)C(F)(F)F)c1` (stereo not drawn) [Compound 96], the “Russian Thistle plant response rating” value (Russian thistle; [1]) is reported as 50, the “Russian Thistle plant response rating” value (Russian thistle; [2]) is reported as 80 and the “Plant response rating, Russian Thistle” value (Russian thistle; Preemergence, 31 g ai/ha) is reported as 0. For the same compound, the “Russian Thistle plant response rating” value (Russian thistle; [3]) was 100.

In the case of `C#CCOc1c(C[S+]([O-])c2cccc[n+]2[O-])c(C(F)(F)F)nn1C` (stereo not drawn) [Compound 76], the “Russian Thistle plant response rating” value (Russian thistle; [1]) is reported as 100, the “Russian Thistle plant response rating” value (Russian thistle; [2]) is reported as 100 and the “Plant response rating, Russian Thistle” value (Russian thistle; Preemergence, 31 g ai/ha) is reported as 0. The “Russian Thistle plant response rating” value (Russian thistle; [3]) was 100.

`Cc1cc[n+]([O-])c(S(=O)(=O)Cc2c(C(F)(F)C(F)(F)F)nn(C)c2OCC(F)(F)F)c1` [Compound 99] was tested, and the “Russian Thistle plant response rating” value (Russian thistle; [1]) was 100, the “Russian Thistle plant response rating” value (Russian thistle; [2]) was 100 and the “Plant response rating, Russian Thistle” value (Russian thistle; Preemergence, 31 g ai/ha) was 100. The “Russian Thistle plant response rating” value (Russian thistle; [3]) was 100.

In the case of `Cc1cc[n+]([O-])c(S(=O)(=O)C(Cl)c2c(C(F)(F)F)nn(C)c2OCC(F)(F)F)c1` (racemic) [Compound 37], the “Plant response rating, Dallisgrass” value (dallisgrass; 16 g ai/ha, preemergence) is reported as 0, the “Dallisgrass plant response rating” value (dallisgrass; 62 g ai/ha, Preemergence) is reported as 75 and the “Dallisgrass plant response rating” value (dallisgrass; 125 g ai/ha, preemergence) is reported as 100. The “Plant response rating, Dallisgrass” value (dallisgrass; Preemergence, 31 g ai/ha) was 25, the “Plant response rating, Guineagrass” value (guineagrass; 16 g ai/ha, preemergence) was 65 and the “Guineagrass plant response rating” value (guineagrass; 62 g ai/ha, Preemergence) was 85. The “Guineagrass plant response rating” value (guineagrass; 125 g ai/ha, preemergence) was 100, the “Plant response rating, Guineagrass” value (guineagrass; Preemergence, 31 g ai/ha) was 75 and the “Plant response rating, Russian Thistle” value (Russian thistle; Preemergence, 31 g ai/ha) was 100. For the same compound, the “Russian Thistle plant response rating” value (Russian thistle; [3]) was 100, the “Plant response rating, Prickly Sida” value (prickly sida; 16 g ai/ha, preemergence) was 0 and the “Prickly Sida plant response rating” value (prickly sida; 62 g ai/ha, Preemergence) was 35. The “Prickly Sida plant response rating” value (prickly sida; 125 g ai/ha, preemergence) was 90, the “Plant response rating, Prickly Sida” value (prickly sida; Preemergence, 31 g ai/ha) was 15 and the “Plant response rating, Mallow” value (common mallow; 16 g ai/ha, preemergence) was 0. For the same compound, the “Mallow plant response rating” value (common mallow; 62 g ai/ha, Preemergence) was 0, the “Mallow plant response rating” value (common mallow; 125 g ai/ha, preemergence) was 90 and the “Plant response rating, Mallow” value (common mallow; Preemergence, 31 g ai/ha) was 0. For the same compound, the “Plant response rating, Foxtail, Green” value (green foxtail; 16 g ai/ha, preemergence) was 0, the “Foxtail, Green plant response rating” value (green foxtail; 62 g ai/ha, Preemergence) was 15 and the “Foxtail, Green plant response rating” value (green foxtail; 125 g ai/ha, preemergence) was 90. The “Plant response rating, Foxtail, Green” value (green foxtail; Preemergence, 31 g ai/ha) was 10, the “Plant response rating, Field Bindweed” value (field bindweed; 16 g ai/ha, preemergence) was 0 and the “Field Bindweed plant response rating” value (field bindweed; 62 g ai/ha, Preemergence) was 0. The “Field Bindweed plant response rating” value (field bindweed; 125 g ai/ha, preemergence) was 0, the “Plant response rating, Field Bindweed” value (field bindweed; Preemergence, 31 g ai/ha) was 0 and the “Plant response rating, Itchgrass” value (itchgrass; 16 g ai/ha, preemergence) was 0. For the same compound, the “Itchgrass plant response rating” value (itchgrass; 62 g ai/ha, Preemergence) was 35, the “Itchgrass plant response rating” value (itchgrass; 125 g ai/ha, preemergence) was 80 and the “Plant response rating, Itchgrass” value (itchgrass; Preemergence, 31 g ai/ha) was 0. For the same compound, the “Plant response rating, Quackgrass” value (quackgrass; 16 g ai/ha, preemergence) was 0, the “Quackgrass plant response rating” value (quackgrass; 62 g ai/ha, Preemergence) was 25 and the “Quackgrass plant response rating” value (quackgrass; 125 g ai/ha, preemergence) was 70. The “Plant response rating, Quackgrass” value (quackgrass; Preemergence, 31 g ai/ha) was 25, the “Plant response rating, Black Mustard” value (mustard; 16 g ai/ha, preemergence) was 0 and the “Black Mustard plant response rating” value (mustard; 62 g ai/ha, Preemergence) was 50. The “Black Mustard plant response rating” value (mustard; 125 g ai/ha, preemergence) was 100, the “Plant response rating, Black Mustard” value (mustard; Preemergence, 31 g ai/ha) was 15 and the “Plant response rating, Barnyardgrass” value (barnyardgrass; 16 g ai/ha, preemergence, scale 0 to 100 (0 no effect, 100 complete control)) was 20. For the same compound, the “Barnyardgrass plant response rating” value (barnyardgrass; [1]) was 100, the “Barnyardgrass plant response rating” value (barnyardgrass; 125 g ai/ha, preemergence, scale 0 to 100) was 100 and the “Plant response rating, Barnyardgrass” value (barnyardgrass; Preemergence, 31 g ai/ha, scale 0 to 100) was 40. The “Plant response rating, Sandbur” value (southern sandbur; 16 g ai/ha, preemergence) was 35, the “Sandbur plant response rating” value (southern sandbur; 125 g ai/ha, preemergence) was 90 and the “Plant response rating, Sandbur” value (southern sandbur; Preemergence, 62 g ai/ha) was 90. For the same compound, the “Plant response rating, Sandbur” value (southern sandbur; Preemergence, 31 g ai/ha) was 70, the “Plant response rating, Purslane” value (common purslane; 16 g ai/ha, preemergence) was 0 and the “Purslane plant response rating” value (common purslane; 62 g ai/ha, Preemergence) was 25. The “Purslane plant response rating” value (common purslane; 125 g ai/ha, preemergence) was 50 and the “Plant response rating, Purslane” value (common purslane; Preemergence, 31 g ai/ha) was 0.

`Cc1cc[n+]([O-])c(S(=O)(=O)Cc2c(C(F)(F)F)nn(C)c2OCC(F)F)c1` [Compound 94] was tested, and the “Russian Thistle plant response rating” value (Russian thistle; [1]) was 100, the “Russian Thistle plant response rating” value (Russian thistle; [2]) was 100 and the “Plant response rating, Russian Thistle” value (Russian thistle; Preemergence, 31 g ai/ha) was 100. For the same compound, the “Russian Thistle plant response rating” value (Russian thistle; [3]) was 100.

`Cn1nc(C(F)(F)F)c(C[S+]([O-])c2ccc(F)c[n+]2[O-])c1Cl` (stereo not drawn) [Compound 54] was tested, and the “Russian Thistle plant response rating” value (Russian thistle; [1]) was 30, the “Russian Thistle plant response rating” value (Russian thistle; [2]) was 100 and the “Plant response rating, Russian Thistle” value (Russian thistle; Preemergence, 31 g ai/ha) was 0. For the same compound, the “Russian Thistle plant response rating” value (Russian thistle; [3]) was 100.

With `Cn1nc(C(F)(F)F)c(C(Cl)S(=O)(=O)c2cccc[n+]2[O-])c1OCC(F)(F)F` (racemic) [Compound 36] the “Plant response rating, Russian Thistle” value (Russian thistle; Preemergence, 31 g ai/ha) was 0 and the “Russian Thistle plant response rating” value (Russian thistle; [3]) was 60.

In the case of `CC(c1c(C(F)(F)F)nn(CC(F)(F)F)c1Cl)[S+]([O-])c1cccc[n+]1[O-]` (stereo not drawn) [Compound 46], the “Russian Thistle plant response rating” value (Russian thistle; [1]) is reported as 0, the “Russian Thistle plant response rating” value (Russian thistle; [2]) is reported as 100 and the “Russian Thistle plant response rating” value (Russian thistle; [3]) is reported as 100.

With `Cn1nc(C(F)(F)F)c(C(Cl)S(=O)(=O)c2cccc[n+]2[O-])c1Cl` (stereo not drawn) [Compound 12] the “Russian Thistle plant response rating” value (Russian thistle; 31 g ai/ha, Preemergence, scale 0 to 100) was 100, the “Russian Thistle plant response rating” value (Russian thistle; 62 g ai/ha, preemergence, scale 0 (no effect) to 100 (complete control)) was 100 and the “Plant response rating (0 to 100), Russian Thistle” value (Russian thistle; Preemergence, 250 g ai/ha) was 100. The “Russian Thistle plant response rating” value (Russian thistle; preemergence, 125 g ai/ha, scale 0 (no effect) to 100 (complete control)) was 100.
